Data taken from patent publication US9840513B2 (AbbVie S.à.r.l., priority 2015, dated 2017).

Molecular target: T1, F508delCFTR cell surface expression in CFBE41o-F508delCFTR-HRP cells (Homo sapiens, UniProt P13569, DEL508-508)
T1 construct: fused on or other part: Horseradish peroxidase (HRP) reporter inserted in the fourth exofacial (extracellular) loop of CFTR; expression is doxycycline-inducible
Test: Cell Surface Expression-Horse Radish Peroxidase (CSE-HRP) Assay
Format: cell-based
Settings: for EC50: CFBE41o-F508delCFTR-HRP cells, 18-24 hours at 33° C., 8-point curve, highest concentration 20 μM; for Maximum % activity (%): maximum at any tested concentration, normalized to on-plate positive control (3 μM)
Method in brief: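 Correctors incubated 18-24 h at 33 °C on doxycycline-induced (0.5 μg/mL, 72 h) CFBE41o-F508delCFTR-HRP cells, 3-fold series from 20 μM. After DPBS washes, luminol luminescence read; activity expressed relative to DMSO and a 3 μM positive control, EC50 fitted from triplicate plates.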

T1 sequence (P13569 with tags, fused parts or gaps DEL508-508 limits assumed): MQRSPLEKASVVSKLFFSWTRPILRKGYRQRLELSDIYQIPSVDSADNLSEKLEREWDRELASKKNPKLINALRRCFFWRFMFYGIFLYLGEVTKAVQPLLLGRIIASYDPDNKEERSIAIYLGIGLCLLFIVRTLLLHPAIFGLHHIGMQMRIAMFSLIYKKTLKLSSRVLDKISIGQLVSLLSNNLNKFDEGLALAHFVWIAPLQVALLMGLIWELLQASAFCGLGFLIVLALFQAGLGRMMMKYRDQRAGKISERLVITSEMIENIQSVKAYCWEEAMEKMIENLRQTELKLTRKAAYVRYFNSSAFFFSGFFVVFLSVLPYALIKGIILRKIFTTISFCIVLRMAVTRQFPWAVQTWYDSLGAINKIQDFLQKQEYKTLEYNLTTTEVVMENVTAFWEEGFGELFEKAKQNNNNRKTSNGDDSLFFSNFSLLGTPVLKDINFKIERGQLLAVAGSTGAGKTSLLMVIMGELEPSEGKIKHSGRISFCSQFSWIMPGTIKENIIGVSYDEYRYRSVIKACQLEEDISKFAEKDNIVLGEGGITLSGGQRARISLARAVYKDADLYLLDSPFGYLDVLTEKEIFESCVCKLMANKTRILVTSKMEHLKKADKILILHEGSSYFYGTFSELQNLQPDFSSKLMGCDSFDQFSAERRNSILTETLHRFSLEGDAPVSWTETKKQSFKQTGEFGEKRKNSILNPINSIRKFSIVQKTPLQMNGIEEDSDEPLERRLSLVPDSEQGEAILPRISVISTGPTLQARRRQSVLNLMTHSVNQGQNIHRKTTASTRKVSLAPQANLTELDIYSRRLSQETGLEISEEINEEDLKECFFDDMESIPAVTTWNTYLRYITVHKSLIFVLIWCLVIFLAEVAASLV
T1 sequence (P13569 919-1480 limits assumed, stated change not applied): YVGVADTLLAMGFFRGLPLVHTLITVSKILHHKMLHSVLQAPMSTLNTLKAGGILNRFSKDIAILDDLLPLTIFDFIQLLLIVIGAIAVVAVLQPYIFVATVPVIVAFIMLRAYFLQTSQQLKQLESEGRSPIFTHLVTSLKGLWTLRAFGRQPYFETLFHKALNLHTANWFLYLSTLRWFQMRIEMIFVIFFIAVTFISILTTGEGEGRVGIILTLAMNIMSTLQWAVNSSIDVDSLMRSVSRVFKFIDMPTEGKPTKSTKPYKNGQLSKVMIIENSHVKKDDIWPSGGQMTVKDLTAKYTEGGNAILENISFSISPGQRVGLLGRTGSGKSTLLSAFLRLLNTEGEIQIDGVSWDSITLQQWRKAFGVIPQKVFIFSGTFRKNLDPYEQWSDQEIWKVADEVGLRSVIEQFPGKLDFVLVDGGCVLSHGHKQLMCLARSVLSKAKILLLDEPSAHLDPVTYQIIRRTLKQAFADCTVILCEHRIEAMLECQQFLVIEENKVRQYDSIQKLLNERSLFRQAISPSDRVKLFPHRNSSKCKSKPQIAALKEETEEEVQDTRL

| SMILES | EC50 [nM] | Maximum % activity (%) |
| --- | --- | --- |
| CC(O)CNC(=O)[C@H]1CC[C@H]([C@H]2C[C@@H](NC(=O)[C@@]3(C)COc4cc5c(cc43)OC(F)(F)O5)c3ccc(OC(F)(F)F)cc3O2)CC1 (stereo partly drawn) [Example 258, (7R)-2,2-difluoro-N-[(2R,4R)-2-{trans-4-[(2-hydroxypropyl)carbamoyl]cyclohexyl}-7-(trifluoromethoxy)-3,4-dihydro-2H-1-benzopyran-4-yl]-7-methyl-6,7-dihydro-2H-furo[2,3-f][1,3]benzodioxole-7-carboxamide] | 110 | 174 |
| C[C@]1(C(=O)N[C@@H]2C[C@H]([C@H]3CC[C@H](C(=O)Nc4ccccc4O)CC3)Oc3cc(OC(F)(F)F)ccc32)COc2cc3c(cc21)OC(F)(F)O3 [Example 262, (7R)-2,2-difluoro-N-[(2R,4R)-2-{trans-4-[(2-hydroxyphenyl)carbamoyl]cyclohexyl}-7-(trifluoromethoxy)-3,4-dihydro-2H-1-benzopyran-4-yl]-7-methyl-6,7-dihydro-2H-furo[2,3-f][1,3]benzodioxole-7-carboxamide] | 90 | 184 |
| C[C@]1(C(=O)N[C@@H]2C[C@H]([C@H]3CC[C@H](C(=O)N4CCN(CCO)CC4)CC3)Oc3cc(OC(F)(F)F)ccc32)COc2cc3c(cc21)OC(F)(F)O3 [Example 266, (7R)-2,2-difluoro-N-[(2R,4R)-2-{trans-4-[4-(2-hydroxyethyl)piperazine-1-carbonyl]cyclohexyl}-7-(trifluoromethoxy)-3,4-dihydro-2H-1-benzopyran-4-yl]-7-methyl-6,7-dihydro-2H-furo[2,3-f][1,3]benzodioxole-7-carboxamide] | 110 | 160 |
| CC(C)(O)CNC(=O)[C@H]1CC[C@H]([C@H]2C[C@@H](NC(=O)[C@@]3(C)COc4cc5c(cc43)OC(F)(F)O5)c3ccc(OC(F)(F)F)cc3O2)CC1 [Example 267, (7R)-2,2-difluoro-N-[(2R,4R)-2-{trans-4-[(2-hydroxy-2-methylpropyl)carbamoyl]cyclohexyl}-7-(trifluoromethoxy)-3,4-dihydro-2H-1-benzopyran-4-yl]-7-methyl-6,7-dihydro-2H-furo[2,3-f][1,3]benzodioxole-7-carboxamide] | 90 | 166 |
| CC(C)(CO)NC(=O)[C@H]1CC[C@H]([C@H]2C[C@@H](NC(=O)[C@@]3(C)COc4cc5c(cc43)OC(F)(F)O5)c3ccc(OC(F)(F)F)cc3O2)CC1 [Example 268, (7R)-2,2-difluoro-N-[(2R,4R)-2-{trans-4-[(1-hydroxy-2-methylpropan-2-yl)carbamoyl]cyclohexyl}-7-(trifluoromethoxy)-3,4-dihydro-2H-1-benzopyran-4-yl]-7-methyl-6,7-dihydro-2H-furo[2,3-f][1,3]benzodioxole-7-carboxamide] | 120 | 186 |
| C[C@]1(C(=O)N[C@@H]2C[C@H]([C@H]3CC[C@H](C(=O)N4CCC(F)(F)CC4)CC3)Oc3cc(OC(F)(F)F)ccc32)COc2cc3c(cc21)OC(F)(F)O3 [Example 270, (7R)—N-[(2R,4R)-2-[trans-4-(4,4-difluoropiperidine-1-carbonyl)cyclohexyl]-7-(trifluoromethoxy)-3,4-dihydro-2H-1-benzopyran-4-yl]-2,2-difluoro-7-methyl-6,7-dihydro-2H-furo[2,3-f][1,3]benzodioxole-7-carboxamide] | 180 | 229 |
| COc1ccc2c(c1)O[C@@H](COC[C@H](O)CO)C[C@H]2NC(=O)[C@@]1(C)COc2cc3c(cc21)OC(F)(F)O3 [Example 274, (7R)—N-[(2R,4R)-2-{[(2R)-2,3-dihydroxypropoxy]methyl}-7-methoxy-3,4-dihydro-2H-1-benzopyran-4-yl]-2,2-difluoro-7-methyl-6,7-dihydro-2H-furo[2,3-f][1,3]benzodioxole-7-carboxamide] | 850 | 99 |
| COc1ccc2c(c1)O[C@H](COC[C@H](O)CO)C[C@@H]2NC(=O)[C@@]1(C)COc2cc3c(cc21)OC(F)(F)O3 [Example 275, (7R)—N-[(2S,4S)-2-{[(2R)-2,3-dihydroxypropoxy]methyl}-7-methoxy-3,4-dihydro-2H-1-benzopyran-4-yl]-2,2-difluoro-7-methyl-6,7-dihydro-2H-furo[2,3-f][1,3]benzodioxole-7-carboxamide] | > 20000 | 7 |
| COc1ccc2c(c1)O[C@@H](COCc1ccccc1)C[C@H]2NC(=O)[C@@]1(C)COc2cc3c(cc21)OC(F)(F)O3 [Example 276, (7R)—N-{(2R,4R)-2-[(benzyloxy)methyl]-7-methoxy-3,4-dihydro-2H-1-benzopyran-4-yl}-2,2-difluoro-7-methyl-6,7-dihydro-2H-furo[2,3-f][1,3]benzodioxole-7-carboxamide] | 700 | 117 |
| COc1ccc2c(c1)O[C@@H](CO)C[C@H]2NC(=O)[C@@]1(C)COc2cc3c(cc21)OC(F)(F)O3 [Example 277, (7R)-2,2-difluoro-N-[(2R,4R)-2-(hydroxymethyl)-7-methoxy-3,4-dihydro-2H-1-benzopyran-4-yl]-7-methyl-6,7-dihydro-2H-furo[2,3-f][1,3]benzodioxole-7-carboxamide] | 660 | 110 |

Further compounds by falling EC50, results first:

| EC50 [nM] | Maximum % activity (%) | SMILES |
| --- | --- | --- |
| 90 | 158 | C[C@]1(C(=O)N[C@@H]2C[C@H]([C@H]3CC[C@H](C(=O)N4C[C@@H](O)[C@H](O)C4)CC3)Oc3cc(OC(F)(F)F)ccc32)COc2cc3c(cc21)OC(F)(F)O3 [Example 255, (7R)—N-[(2R,4R)-2-{trans-4-[(3R,4R)-3,4-dihydroxypyrrolidine-1-carbonyl]cyclohexyl}-7-(trifluoromethoxy)-3,4-dihydro-2H-1-benzopyran-4-yl]-2,2-difluoro-7-methyl-6,7-dihydro-2H-furo[2,3-f][1,3]benzodioxole-7-carboxamide] |
| 80 | 136 | C[C@]1(C(=O)N[C@@H]2C[C@H]([C@H]3CC[C@H](C(=O)N(CCO)CCO)CC3)Oc3cc(OC(F)(F)F)ccc32)COc2cc3c(cc21)OC(F)(F)O3 [Example 254, (7R)—N-[(2R,4R)-2-{trans-4-[bis(2-hydroxyethyl)carbamoyl]cyclohexyl}-7-(trifluoromethoxy)-3,4-dihydro-2H-1-benzopyran-4-yl]-2,2-difluoro-7-methyl-6,7-dihydro-2H-furo[2,3-f][1,3]benzodioxole-7-carboxamide] |
| 80 | 163 | CC(CO)NC(=O)[C@H]1CC[C@H]([C@H]2C[C@@H](NC(=O)[C@@]3(C)COc4cc5c(cc43)OC(F)(F)O5)c3ccc(OC(F)(F)F)cc3O2)CC1 (stereo partly drawn) [Example 259, (7R)-2,2-difluoro-N-[(2R,4R)-2-{trans-4-[(1-hydroxypropan-2-yl)carbamoyl]cyclohexyl}-7-(trifluoromethoxy)-3,4-dihydro-2H-1-benzopyran-4-yl]-7-methyl-6,7-dihydro-2H-furo[2,3-f][1,3]benzodioxole-7-carboxamide] |
| 80 | 173 | C[C@]1(C(=O)N[C@@H]2C[C@H]([C@H]3CC[C@H](C(=O)N4CCC(O)CC4)CC3)Oc3cc(OC(F)(F)F)ccc32)COc2cc3c(cc21)OC(F)(F)O3 [Example 265, (7R)-2,2-difluoro-N-[(2R,4R)-2-[trans-4-(4-hydroxypiperidine-1-carbonyl)cyclohexyl]-7-(trifluoromethoxy)-3,4-dihydro-2H-1-benzopyran-4-yl]-7-methyl-6,7-dihydro-2H-furo[2,3-f][1,3]benzodioxole-7-carboxamide] |
| 70 | 170 | C[C@]1(C(=O)N[C@@H]2C[C@H]([C@H]3CC[C@H](C(=O)N4CCOCC4CO)CC3)Oc3cc(OC(F)(F)F)ccc32)COc2cc3c(cc21)OC(F)(F)O3 (stereo partly drawn) [Example 257, (7R)-2,2-difluoro-N-[(2R,4R)-2-{trans-4-[3-(hydroxymethyl)morpholine-4-carbonyl]cyclohexyl}-7-(trifluoromethoxy)-3,4-dihydro-2H-1-benzopyran-4-yl]-7-methyl-6,7-dihydro-2H-furo[2,3-f][1,3]benzodioxole-7-carboxamide] |
| 60 | 186 | C[C@]1(C(=O)N[C@@H]2C[C@H]([C@H]3CC[C@H](C(=O)N(CCO)Cc4ccccc4)CC3)Oc3cc(OC(F)(F)F)ccc32)COc2cc3c(cc21)OC(F)(F)O3 [Example 264, (7R)—N-[(2R,4R)-2-{trans-4-[benzyl(2-hydroxyethyl)carbamoyl]cyclohexyl}-7-(trifluoromethoxy)-3,4-dihydro-2H-1-benzopyran-4-yl]-2,2-difluoro-7-methyl-6,7-dihydro-2H-furo[2,3-f][1,3]benzodioxole-7-carboxamide] |
| 60 | 172 | C[C@]1(C(=O)N[C@@H]2C[C@H]([C@H]3CC[C@H](C(=O)N4CCOCC4)CC3)Oc3cc(OC(F)(F)F)ccc32)COc2cc3c(cc21)OC(F)(F)O3 [Example 271, (7R)-2,2-difluoro-7-methyl-N-[(2R,4R)-2-[trans-4-(morpholine-4-carbonyl)cyclohexyl]-7-(trifluoromethoxy)-3,4-dihydro-2H-1-benzopyran-4-yl]-6,7-dihydro-2H-furo[2,3-f][1,3]benzodioxole-7-carboxamide] |
| 50 | 192 | C[C@]1(C(=O)N[C@@H]2C[C@H]([C@H]3CC[C@H](C(=O)NC(CO)c4ccccc4)CC3)Oc3cc(OC(F)(F)F)ccc32)COc2cc3c(cc21)OC(F)(F)O3 (stereo partly drawn) [Example 269, (7R)-2,2-difluoro-N-[(2R,4R)-2-{trans-4-[(2-hydroxy-1-phenylethyl)carbamoyl]cyclohexyl}-7-(trifluoromethoxy)-3,4-dihydro-2H-1-benzopyran-4-yl]-7-methyl-6,7-dihydro-2H-furo[2,3-f][1,3]benzodioxole-7-carboxamide] |
